Data taken from PubChem BioAssay (NCI).
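Method: 48-hour compound exposure of cells in 96-well plates, five concentrations, linear interpolation of endpoints. Abbreviation: GI50, concentration required for 50% inhibition of growth. TGI: concentration producing complete growth inhibition.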

Assays:
Assay in all cases: NCI-60 cell line screen, 48 h
[1] = tested on: MCF7 breast
[2] = tested on: NCI-H23 lung
[3] = tested on: SNB-75 CNS
[4] = tested on: CAKI-1 renal
[5] = tested on: UO-31 renal
[6] = tested on: HOP-92 NSCLC
[7] = tested on: U251 CNS
[8] = tested on: MDA-MB-435
[9] = tested on: COLO 205 colon
[10] = tested on: HCT-116 colon
[11] = tested on: TK-10 renal
[12] = tested on: MALME-3M melanoma
[13] = tested on: SK-MEL-28 melanoma
[14] = tested on: SN12C renal
[15] = tested on: EKVX NSCLC
[16] = tested on: NCI-H460 lung
[17] = tested on: SF-539 CNS
[18] = tested on: UACC-257 melanoma
[19] = tested on: SK-OV-3 ovarian
[20] = tested on: PC-3 prostate
[21] = tested on: A549 NSCLC
[22] = tested on: 786-0 renal
[23] = tested on: SK-MEL-2 melanoma
[24] = tested on: HL-60(TB) leukemia
[25] = tested on: MDA-MB-231 breast
[26] = tested on: OVCAR-3 ovarian
[27] = tested on: IGROV1 ovarian
[28] = tested on: SF-268 CNS
[29] = tested on: HOP-62 NSCLC
[30] = tested on: DU-145 prostate
[31] = tested on: HCT-15 colon
[32] = tested on: A498 renal
[33] = tested on: RPMI-8226 leukemia
[34] = tested on: MOLT-4 leukemia
[35] = tested on: ACHN renal
[36] = tested on: KM12 colon
[37] = tested on: SK-MEL-5 melanoma
[38] = tested on: OVCAR-4 ovarian
[39] = tested on: SF-295 CNS
[40] = tested on: CCRF-CEM leukemia
[41] = tested on: HT29 colon
[42] = tested on: HS 578T breast
[43] = tested on: UACC-62 melanoma
[44] = tested on: OVCAR-5 ovarian
[45] = tested on: M14 melanoma
[46] = tested on: K-562 leukemia
[47] = tested on: HCC-2998 colon
[48] = tested on: OVCAR-8 ovarian
[49] = tested on: SW-620 colon
[50] = tested on: NCI/ADR-RES ovarian
[51] = tested on: LOX IMVI melanoma
[52] = tested on: RXF 393 renal
[53] = tested on: NCI-H226 lung
[54] = tested on: NCI-H522 lung
[55] = tested on: SR leukemia
[56] = tested on: T-47D breast
[57] = tested on: SNB-19 CNS
[58] = tested on: BT-549 breast

For `COc1cc(-c2ccc(Br)[nH]2)[nH]c1C=NCC(C)C`, the TGI [1] was 2.47 µM, the TGI [2] was 4.14 µM and the TGI [3] was 9.45 µM. It also gave a TGI [4] of 7.64 µM, a TGI [5] of 4.77 µM and a TGI [6] of 4.01 µM. It also gave a TGI [7] of 3.88 µM, a TGI [8] of 4.54 µM and a TGI [9] of 2480 nM. The TGI [10] was 2860 nM, the TGI [11] was 6.56 µM and the TGI [12] was 3.13 µM. It also gave a TGI [13] of 7.67 µM, a TGI [14] of 7.51 µM and a TGI [15] of 2030 nM. The TGI [16] was 7.92 µM, the TGI [17] was 5.84 µM and the TGI [18] was 5.34 µM. The TGI [19] was 6.91 µM, the TGI [20] was 4.39 µM and the TGI [21] was 3.62 µM. The TGI [22] was 3.27 µM, the TGI [23] was 3.07 µM and the TGI [24] was 3.9 µM. It also gave a TGI [25] of 6.64 µM, a TGI [26] of 3.79 µM and a TGI [27] of 7.09 µM. For the same compound, the TGI [28] was 9.1 µM, the TGI [29] was 3.39 µM and the TGI [30] was 2900 nM. For the same compound, the TGI [31] was 3.15 µM, the TGI [32] was 7.16 µM and the TGI [33] was 2670 nM. For the same compound, the TGI [34] was 4.04 µM, the TGI [35] was 4.19 µM and the TGI [36] was 3.94 µM. The TGI [37] was 2870 nM, the TGI [38] was 12.8 µM and the TGI [39] was 3.67 µM. It also gave a TGI [40] of 3.24 µM, a TGI [41] of 3.54 µM and a TGI [42] of 5.26 µM. It also gave a TGI [43] of 7.33 µM, a TGI [44] of 5.05 µM and a TGI [45] of 4.28 µM. For the same compound, the TGI [46] was 14.2 µM, the TGI [47] was 4.67 µM and the TGI [48] was 6.28 µM.

For `O=C(O)CCC(NC(=O)c1ccc(OCc2nc3cc(C(F)(F)F)ccc3nc2-c2ccccc2)cc1)C(=O)O` (stereo unspecified), the TGI [1] was > 100 µM, the TGI [2] was > 100 µM and the TGI [3] was > 100 µM. For the same compound, the TGI [4] was > 100 µM, the TGI [5] was > 100 µM and the TGI [6] was > 100 µM. The TGI [7] was > 100 µM, the TGI [8] was > 100 µM and the TGI [49] was > 100 µM. For the same compound, the TGI [9] was > 100000 nM, the TGI [10] was > 100000 nM and the TGI [11] was > 100 µM. The TGI [50] was > 100 µM, the TGI [51] was > 100 µM and the TGI [12] was > 100 µM. The TGI [52] was > 100000 nM, the TGI [13] was > 100 µM and the TGI [14] was > 100 µM. The TGI [15] was > 100000 nM, the TGI [53] was > 100 µM and the TGI [16] was > 100 µM. For the same compound, the TGI [17] was > 100 µM, the TGI [18] was > 100 µM and the TGI [19] was > 100 µM. For the same compound, the TGI [20] was > 100 µM, the TGI [21] was > 100 µM and the TGI [22] was > 100 µM. The TGI [23] was > 100 µM, the TGI [24] was > 100 µM and the TGI [25] was > 100 µM. The TGI [54] was > 100 µM, the TGI [26] was > 100 µM and the TGI [27] was > 100 µM. The TGI [28] was > 100 µM, the TGI [29] was > 100 µM and the TGI [30] was > 100000 nM. For the same compound, the TGI [31] was > 100 µM, the TGI [32] was > 100 µM and the TGI [34] was > 100 µM. The TGI [35] was > 100 µM, the TGI [36] was > 100 µM and the TGI [55] was > 100 µM. For the same compound, the TGI [38] was > 100 µM, the TGI [39] was > 100 µM and the TGI [40] was > 100 µM. The TGI [56] was > 100 µM, the TGI [41] was > 100 µM and the TGI [43] was > 100 µM. The TGI [44] was > 100 µM, the TGI [45] was > 100 µM and the TGI [46] was > 100 µM. For the same compound, the TGI [47] was > 100 µM, the TGI [48] was > 100 µM and the TGI [57] was > 100 µM.

Compound `COC(=O)c1ccc2[nH]c(O)c(C(=Nc3ccc(N(C)C(=O)CN4CCN(C)CC4)cc3)c3ccc(C)cc3)c2c1` has a GI50 [4] of 132 nM, a TGI [4] of 1.48 µM and a GI50 [5] of 353 nM. The TGI [5] was 1.47 µM, the GI50 [7] was 571 nM and the TGI [7] was 2 µM. It also gave a GI50 [10] of 124 nM, a TGI [10] of 1270 nM and a GI50 [12] of 618 nM. The TGI [12] was 1.88 µM, the GI50 [52] was 221 nM and the TGI [52] was 1050 nM. The GI50 [17] was 307 nM, the TGI [17] was 1.18 µM and the GI50 [22] was 336 nM. It also gave a TGI [22] of 1.78 µM, a GI50 [32] of 458 nM and a TGI [32] of 1.96 µM. The GI50 [33] was 494 nM, the TGI [33] was 2470 nM and the GI50 [55] was 153 nM. The TGI [55] was 1.34 µM, the GI50 [37] was 1110 nM and the TGI [37] was 2390 nM. It also gave a GI50 [40] of 355 nM, a GI50 [42] of 105 nM and a TGI [42] of 0.977 µM. For the same compound, the GI50 [58] was 1130 nM and the TGI [58] was 2450 nM.

With `NC(N)=N/N=C/c1c(-c2ccc(Cl)c([N+](=O)[O-])c2)nc2sc(Cl)cn12` the TGI [1] was 6.3 µM, the TGI [5] was 3.47 µM and the TGI [7] was > 100 µM. The TGI [10] was > 100000 nM, the TGI [11] was 58.5 µM and the TGI [50] was > 100 µM. The TGI [12] was 5.58 µM, the TGI [14] was 4.88 µM and the TGI [53] was > 100 µM. It also gave a TGI [16] of 8.08 µM, a TGI [17] of 4.98 µM and a TGI [18] of 3.79 µM. The TGI [21] was 7 µM, the TGI [22] was > 100 µM and the TGI [24] was > 100 µM. For the same compound, the TGI [54] was 3.07 µM, the TGI [27] was 3.18 µM and the TGI [29] was > 100 µM. The TGI [31] was > 100 µM, the TGI [33] was > 100000 nM and the TGI [55] was > 100 µM. For the same compound, the TGI [37] was 15900 nM, the TGI [40] was > 100 µM and the TGI [41] was 6.85 µM. For the same compound, the TGI [42] was 5.54 µM, the TGI [58] was 3480 nM and the TGI [44] was > 100 µM. The TGI [46] was > 100 µM, the TGI [47] was > 100 µM and the TGI [48] was 4.08 µM.
